Patent publication US20220370382A1, “METHODS AND COMPOSITIONS FOR CORRECTION OF AUTONOMIC DYSFUNCTIONS” (priority 2021, published 2022)

Assays:
[1] = cited from earlier work
[2] = tested on: effector organs of the vagus nerve; test: Stimulation of the effector organs of the vagus nerve in patients tested; format: in vivo, human
From the text: Certain ingredients of the compound (a choline compound, an acetylcholinesterase inhibitor and Acetyl-L-Carnitine) have been used to reduce inflammation, to assist those suffering from metabolic insufficiencies, and for healthy memory and mental function, and numerous studies have been published involving cognition, dementia, age-related memory loss and neurodegeneration with these ingredients. (U.S. Pat. No. 6,537,969 B1, Patent No. US 2008/0213401). […] It is not intuitive or obvious that any two of these ingredients can also be effective and that any two of these ingredients can restore parasympathetic nerve function even when the postganglionic nerve is not viable for any reason, by directly stimulating the effector organs themselves.
Driscoll found the use of nicotine can diagnose pre-ganglionic vagus nerve dysfunction. […] Nicotine (transdermal, suppository, or) can be used to discern receptor damage from either direct nerve damage or neurotransmitter dysfunction. These forms of nicotine can be used to verify that the organ is capable of responding, to test the cholinergic receptors or postganglionic nerve, or can be used for short periods of time to assist with said organ function (ileocecal valve, gastroparesis/constipation, gallbladder, pancreas, gastric acid secretion). No part of the vagus nerve is required for the use of nicotine to be effective because the invention can effectively stimulate the receptor on the organ itself. […]

[3] = person, Ehlers-Danlos syndrome, given for a hospital-induced infection
[4] = tested on: patients with autonomic dysfunction and/or connective tissue disorders; test: Patient case studies: other signs (tachycardia, dry eyes, light sensitivity, Roth spot, gallbladder function, pseudotumor cerebri symptoms); format: in vivo, human; conditions: person, POTS, Idiopathic Intracranial Hypertension; acetazolamide 250 mg three times per day
Description: They also suffered with poor digestion, dry eyes, and fatigue.
Most every day (usually in the evenings) they experienced pseudo seizures lasting from 30 minutes to three hours. These began with their eyes rolling up and their eyelids fluttering, then they progressed to full body twitching and spasming. These pseudo seizures continued for over three years, but physicians were unable to locate the source of their symptoms. A Roth spot in their ocular fundus in addition to numerous symptoms of nutrient malabsorption were noted. They suffered with light sensitivity secondary to large pupils (5.5 mm), weight loss, extreme fatigue, constipation, tachycardia, and dry eyes.
Gallbladder removal surgery was recommended.

[5] = tested on: patients with autonomic dysfunction and/or connective tissue disorders; conditions: person, POTS, Idiopathic Intracranial Hypertension; acetazolamide 250 mg three times per day
From the text: Acetazolamide was prescribed for high intracranial pressure.

In the case of `CN1CCCC1c1cccnc1` (centres unmarked) [Nicotine], the lethal dosage ([1]; human, in vivo) is given as 60 mg and the “side effects on chronic use” value ([1]; treatment of parasympathetic and vagus nerve dysfunction on a chronic basis) is given as “dermatographia, hives, itching, and welting”.
In the case of `Cc1ncc(C[n+]2csc(CCO)c2C)c(N)n1` [Thiamin], the “autonomic dysfunction or disorders of the effector organs of the parasympathetic nervous system” value ([2]; supplementation alone) is reported as “will not eliminate”.
In the case of `CN[C@H](CC(C)C)C(=O)N[C@H]1C(=O)N[C@@H](CC(N)=O)C(=O)N[C@H]2C(=O)N[C@H]3C(=O)N[C@H](C(=O)N[C@H](C(=O)O)c4cc(O)cc(O)c4-c4cc3ccc4O)[C@H](O)c3ccc(c(Cl)c3)Oc3cc2cc(c3O[C@@H]2O[C@H](CO)[C@@H](O)[C@H](O)[C@H]2O[C@H]2C[C@](C)(N)[C@H](O)[C@H](C)O2)Oc2ccc(cc2Cl)[C@H]1O` [Vancomycin], the “adverse reaction to antibiotic” value [3] is reported as “developed hives and dramatic flushing”.
With `CC(=O)Nc1nnc(S(N)(=O)=O)s1` [acetazolamide] the pseudotumor cerebri symptoms [4] was “relieved” and the visual snow [5] was “did not improve”.
With `C[N+](C)(C)CC(O)CC(=O)[O-]` (centres unmarked) [carnitine] the “organ function when added to the compound” value ([2]; case studies, patients with organ malfunction secondary to poor vagus nerve function) was “better organ function”.
In the case of `CN1CCCC1c1cccnc1` (centres unmarked) [oral nicotine, nicotine], the “stimulation of the effector organs of the vagus nerve / restoration of vagus nerve function” value ([2]; patients tested, ingredient used alone, or nicotine by the stated route (transdermal 1-21 mg)) is reported as “not effective”.
